{"source": "patent US11940441B2", "about": "“Low shear microfluidic devices and methods of use and manufacturing thereof” (President and Fellows of Harvard College, priority 2013, dated 2024)", "format_in_all_cases": "cell-based, human", "key": {"[1]": {"tested_on": "neutrophil adhesion to activated endothelium", "assay": "Neutrophil capture and adhesion in COPD epithelium-microvascular endothelium co-culture device after poly (I:C)", "details": "budesonide 10 nM or PFI-2 500 nM; poly (I:C) 10 μg/ml for 6 h; compared with no treatment", "excerpt": "FIGS. 28A-28C show capability of determining drug efficacy on neutrophil capture and adhesion and inflammation suppression in a small airway mimicking device according to one or more embodiments described herein. (FIG. 28A) Representative immunofluorescence images showing adhesion of recruited neutrophils under three different conditions: (left) no drug; (middle) budesonide; (right) PFI-2. Neutrophils were stained with Hoechst immediately prior to experiment to allow visualization and quantification. (FIG. 28B) Bar graph showing percentage change in neutrophil adhesion to activated endothelium as imaged in FIG. 28A. (n=3 different donors per condition; 7-8 devices per condition from 4 independent experiments; 4-5 distinct fields per chip). […] Cytokines measured include: neutrophil-attractant IL-8, GROα, and GM-CSF, monocyte-chemoattractant MCP-1, and acute inflammation associated cytokine IL-6. […]\nCOPD epithelium-microvascular endothelium co-culture devices were established, e.g., as described in Example 1 or 2, and then were either treated with the corticosteroid drug budesonide (10 nM) or PFI-2 (a bromodomain-containing protein 4 (BRD4) inhibitor drug; 500 nM), or left untreated. […] Neutrophils were stained with Hoechst immediately prior to experiment to allow visualization and quantification. […]\nEffects of budesonide and PFI-2 on neutrophil adhesion were quantified."}, "[2]": {"tested_on": "COPD epithelium-microvascular endothelium co-culture", "assay": "Inflammatory cytokine secretion from the microvascular channel of COPD co-culture devices (Multiplex Cytokine Detection System)", "details": "budesonide 10 nM or PFI-2 500 nM, poly (I:C) 10 μg/ml 6 h", "excerpt": "FIGS. 28A-28C show capability of determining drug efficacy on neutrophil capture and adhesion and inflammation suppression in a small airway mimicking device according to one or more embodiments described herein. (FIG. 28A) Representative immunofluorescence images showing adhesion of recruited neutrophils under three different conditions: (left) no drug; (middle) budesonide; (right) PFI-2. Neutrophils were stained with Hoechst immediately prior to experiment to allow visualization and quantification. (FIG. 28B) Bar graph showing percentage change in neutrophil adhesion to activated endothelium as imaged in FIG. 28A. (n=3 different donors per condition; 7-8 devices per condition from 4 independent experiments; 4-5 distinct fields per chip). (FIG. 28C) A set of bar graphs showing levels of different cytokine secretion modulated by the indicated drug or under no treatment. Cytokines measured include: neutrophil-attractant IL-8, GROα, and GM-CSF, monocyte-chemoattractant MCP-1, and acute inflammation associated cytokine IL-6. (n=3 donors per condition).\nCOPD epithelium-microvascular endothelium co-culture devices were established, e.g., as described in Example 1 or 2, and then were either treated with the corticosteroid drug budesonide (10 nM) or PFI-2 (a bromodomain-containing protein 4 (BRD4) inhibitor drug; 500 nM), or left untreated. The COPD epithelium was then stimulated with poly (I:C) 10 μg/ml via the “airway lumen” channel for 6 h and then examined for adhesion of recruited neutrophils. Neutrophils were stained with Hoechst immediately prior to experiment to allow visualization and quantification. Representative immunofluorescence images of the three conditions are illustrated in FIG. 28A.\nTo compare the ability of budesonide and PFI-2 in suppressing inflammatory cytokine secretion, secreted cytokines from the “microvascular” channel of the co-culture devices were also analyzed by Multiplex Cytokine Detection System prior to neutrophil recruitment assay."}, "[3]": {"tested_on": "pulmonary microvascular endothelial cells", "assay": "Cell adhesion molecule gene expression in endothelial cells after apical poly (I:C) challenge of co-cultured epithelium", "details": "apical poly (I:C) 10 μg/ml for 6 h, compared to cells without challenge", "excerpt": "FIGS. 27A-27C show establishment of a three-cell type microfluidic co-culture system comprising ciliated epithelium, endothelium and circulating leukocytes. (FIG. 27A) Left panel: a 3D cross-sectional diagram of one embodiment of the devices described herein used to re-create post-capillary venules (major sites of leukocyte recruitment and adhesion in vivo). Middle panel: a schematic diagram showing a 3-cell type co-culture of epithelium, endothelium and neutrophils (all primary cells). Right panel: vertical immunofluorescence cross-section of ciliated epithelium and endothelium bilayer on-device. Ciliated cells were labeled for β-tubulin IV and endothelial cells were stained with anti-CD31/PECAM-1 antibody. Nuclei were counterstained with DAPI. Scale bar, 20 μm. […] Following initial attachment the neutrophil crawled over apical surface of activated endothelium and then firmly adhered (times indicated in seconds). Neutrophils and endothelial cells had been live stained with CellTracker Red and Calcein AM, respectively. (FIG. 27C) Bar graphs showing E-selectin and VCAM1 mRNA levels in endothelia cells upon treatment of differentiated epithelial cells with or without poly (I:C). (3 devices per condition were used) […]"}, "[4]": {"tested_on": "differentiated airway epithelial cells", "assay": "Infection response of differentiated airway epithelial cells to TLR-3 ligand poly I:C in the device", "experimental": "FIGS. 11A-11D illustrate an exemplary method of evaluating an infection response of differentiated small airway epithelial cells and optionally immune cells in a device in accordance with an embodiment, and experimental data resulting therefrom. FIG. 11A is a schematic diagram illustrating an example method to evaluate an infection response in the device. Primary small airway epithelial cells were seeded on the membrane in the mesochannel (an “airway lumen” channel) for differentiation into ciliated and/or mucus-secreting cells following the differentiation method as described in FIG. 5A. Upon differentiation of the airway epithelial cells, another surface of the membrane (facing the microchannel, the “blood vessel” channel) could be seeded with or without endothelial cells. The differentiated cells in the mesochannel were then challenged with a toll-like receptor 3 (TLR-3) ligand poly I:C to induce inflammation. A fluid comprising immune cells (e.g., human monocytes) was introduced into the “blood vessel” channel, either with a static fluid or a flowing fluid, to determine effects of TLR-3-induced inflammation on cytokine/chemokine profiles of the differentiated cells and/or recruitment of immune cells (e.g., monocytes and/or neutrophils). […] FIG. 11C is a set of data showing quantification of monocytes attached to the TLR-3 activated differentiated epithelial cells in the device and the associated fluorescent images. FIG. 11D is a graph showing gene expression of differentiated epithelial cells after treatment with or without a TLR-3 ligand poly I:C.\nBy way of example only, FIGS. 11A-11D illustrate the capability of using one embodiment of the device described herein to model a bacterial/viral infection. […] Cytokines or chemokines secreted into the fluid flowing in the mesochannel and/or microchannel can be measured by collecting from the outlet an aliquot of the fluid exiting the mesochannel and/or microchannel, which is then subjected to cytokine/chemokine expression analyses."}, "[5]": {"tested_on": "COPD and healthy differentiated epithelial cells", "assay": "Cytokine response of differentiated COPD and healthy epithelia to TLR stimulation in the device", "details": "for M-CSF secretion: poly(I:C) stimulation; for IL8 secretion: LPS stimulation", "excerpt": "FIGS. 26A-26E are data graphs showing COPD disease phenotype can be established in the device according to one or more embodiments described herein. […] FIG. 26B compares IL-8 secretion between COPD and healthy epithelia after LPS (lipopolysaccharides) stimulation. FIG. 26C compares M-CSF secretion between COPD and healthy epithelia after […] (polyinosinic:polycytidylic acid) stimulation.\nIt was next sought to determine cytokine production in response to TLR stimulation. Cytokines are molecules that are involved in inflammation and their generation can be modulated by TLR activation. After the well-differentiated (i.e. mucociliary) epithelium (normal and COPD-derived) was stimulated with lipopolysaccharides (LPS), a qPCR was performed on the cells to compare inflammatory response between COPD and healthy epithelia in the devices described herein. LPS is a bacterial derived molecule that stimulates TLR4. […] This is in line with clinical reports and other ex vivo observations that COPD patients are hyper-reactive inflammation-wise and produce more pro-inflammatory mediators. […] M-CSF is a cytokine that promotes survival and differentiations of a subset of immune cells, e.g., macrophages, in our bodies. This agrees with general observations that in the lungs of COPD patients there is generally an increased number of macrophages as compared to the number of macrophages in healthy individuals."}, "[6]": {"tested_on": "differentiated airway cells", "assay": "IL-13 induced asthma-like phenotype in the airway-on-a-chip", "excerpt": "FIGS. 30A-30D show induction of asthma-like phenotype in the airway-on-a-chip for assessment of drug efficacy. […] FIG. 30B is a bar graph showing quantification of globet cell coverage based on the fluorescent images (representative images shown in FIG. 30A). FIG. 30C is a set of bar graphs showing secretion of G-CSF and GM-CSF by IL-13 stimulated cells, as compared to cells without IL-13 stimulation. FIG. 30D is a bar graph showing cilia beating frequency under indicated conditions. In FIGS. 30B-30D, the “airway” devices were also used to assess the drug efficacy of Tofacitinib, a JAK inhibitor, by treating the IL-13 stimulated cells with Tofacitinib, and measuring each phenotype as described above accordingly.\nTo develop asthma-like phenotype in the devices described herein, airway cells were differentiated in the devices, e.g., using the methods as described in Example 1 or 2, and then stimulated with IL-13 to induce asthma-like phenotype in the devices. IL-13 is a protein secreted by immune cells which is found in high quantities in lungs of asthmatics.\nThe “airway” devices were then used to assess the drug efficacy of Tofacitinib, a JAK inhibitor."}, "[7]": {"details": "healthy donor and COPD epithelial cells, poly (I:C) stimulation"}, "[8]": {"details": "drug treatment of IL-13 stimulated cultures"}, "[9]": {"details": "IL-13 stimulation compared to cells without IL-13 stimulation"}}, "data": [{"compound": "Cl.O=C([C@@H](Cc1cccc(C(F)(F)F)c1)NS(=O)(=O)c1cc(F)c2c(c1)CCNC2)N1CCCC1", "note": "[PFI-2]", "values": [{"measurement": "neutrophil recruitment / adhesion to activated endothelium", "setting": "[1]", "result": "significantly lowered"}, {"measurement": "secretion of GM-CSF", "setting": "[2]", "result": "significantly lowered"}, {"measurement": "secretion of GROα", "setting": "[2]", "result": "significantly lowered"}, {"measurement": "secretion of IL-6", "setting": "[2]", "result": "significantly lowered"}, {"measurement": "secretion of IL-8", "setting": "[2]", "result": "significantly lowered"}, {"measurement": "secretion of MCP-1", "setting": "[2]", "result": "significantly lowered"}]}, {"compound": "polyinosinic:polycytidylic acid [poly (I:C)]", "values": [{"measurement": "E-selectin gene expression in endothelial cells", "setting": "[3]", "result": "significant up-regulation"}, {"measurement": "VCAM-1 transcript levels in endothelial cells", "setting": "[3]", "result": "higher, but not statistically significant"}, {"measurement": "release of chemokines (monocyte and neutrophil chemoattractants)", "setting": "[4]; TLR-3 activation of differentiated airway epithelial cells", "result": "stimulates release of chemokines"}, {"measurement": "monocyte adhesion to differentiated epithelial cells", "setting": "[4]; TLR-3 stimulation", "result": "enhances monocyte adhesion"}, {"measurement": "epithelial cells' gene expression of IP-10", "setting": "[4]; differentiated epithelial cells with or without poly I:C", "result": "significantly increases"}, {"measurement": "M-CSF secretion", "setting": "[5]; COPD epithelial cells", "result": "selectively up-regulated"}, {"measurement": "expression of IP-10", "setting": "[5]; [7]", "result": "induced in both healthy donor and COPD epithelial cells"}, {"measurement": "expression of RANTES", "setting": "[5]; [7]", "result": "induced in both healthy donor and COPD epithelial cells"}, {"measurement": "M-CSF secretion", "setting": "[5]; healthy epithelial cells", "result": "no significant change"}]}, {"compound": "C[C@@H]1CCN(C(=O)CC#N)C[C@@H]1N(C)c1ncnc2[nH]ccc12", "note": "[Tofacitinib]", "values": [{"measurement": "G-CSF secretion", "setting": "[6]; [8]", "result": "decrease GM-CSF and G-CSF secretion"}, {"measurement": "GM-CSF secretion", "setting": "[6]; [8]", "result": "decrease GM-CSF and G-CSF secretion"}, {"measurement": "cilia beating frequency", "setting": "[6]; [8]", "result": "increase cilia beating frequency"}, {"measurement": "number of goblet cells", "setting": "[6]; [8]", "result": "decrease the number of goblet cells"}]}, {"compound": "lipopolysaccharides [LPS]", "values": [{"measurement": "IL8 secretion", "setting": "[5]; COPD epithelial cells", "result": "selectively induced"}, {"measurement": "IL8 secretion", "setting": "[5]; healthy epithelial cells", "result": "without increasing"}]}, {"compound": "IL-13: a protein secreted by immune cells which is found in high quantities in lungs of asthmatics", "values": [{"measurement": "cilia beating frequency", "setting": "[6]; [9]", "result": "lower cilia beating frequency"}, {"measurement": "number of goblet cells", "setting": "[6]; [9]", "result": "higher number of goblet cells"}, {"measurement": "secretion of G-CSF", "setting": "[6]; [9]", "result": "higher secretion"}, {"measurement": "secretion of GM-CSF", "setting": "[6]; [9]", "result": "higher secretion"}]}]}
